≈ marks a conversion by molar mass, not a printed value. Where a SMILES comes first, the peptide text is derived from it. Bridges are numbered along the chain shown (N, C = ends). [ ]: non-standard residue; d: D form. The star is where a group is joined. Heptanoyl(6-Me) = CC(C)CCCCC(=O)*; Octanoyl(7-Me) = CC(C)CCCCCC(=O)*; X2 = CC[C@H](C)CCCCC(=O)*; Heptanoyl = CCCCCCC(=O)*; Dab = NCC[C@H](N)C(=O)O; Nva = CCC[C@H](N)C(=O)O
Tests used:
Format in all cases: cell-based
[1] = system: Pseudomonas aeruginosa ATCC 27853; conditions: ATCC 27853
Outline: (§1)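 Agar dilution per CLSI; drug mixed into molten agar at twofold steps from 0.03 to 128 μg/mL (final). Inoculum 10^4 CFU/dot, multipoint. Incubation 35° C., 18–24 h; MIC = lowest concentration with no colonies.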

[2] = system: Acinetobacter baumannii ATCC 19606; conditions: ATCC 19606
Outline: as §1

[3] = system: Escherichia coli ATCC 25922; conditions: ATCC 25922
Outline: as §1

[4] = system: Staphylococcus epidermidis ATCC 12228; conditions: ATCC 12228
Outline: as §1

[5] = system: Klebsiella pneumoniae ATCC BAA-2146 (NDM-1); assay: Antibacterial activity, MIC by dish double dilution method; conditions: ATCC BAA-2146
Outline: as §1

[6] = Nephrotoxicity test, renal cytotoxicity by MTT method; conditions: African green monkey
Experimental: African green monkey kidney cells (Vero cells) were cultured in MEM medium (Hyclone), 10% fetal calf serum (Invitrogen) was added before use, cultured at 37° C. under 5% CO2.
Experiment was carried out using MTT method. After digestion, cells in logarithmic growth phase were counted, then the cells were inoculated in a 96-well culture plate. After incubation for 24 h to be adherent, cells were treated with a concentration gradient of a compound of the invention (e.g., a compound prepared in the Embodiments) and the controls. After 72 h, the culture solution was removed, 100 uL of MTT reagent at a concentration of 0.5 mg/ml was added, the medium was removed after incubating for 3 hours in a 37° C. incubator. Add 150 μL DMSO solvent to each well, mix for 3 min, after which the absorbance at 570 nm (A) was measured with a microplate reader.
Cell viability %=(Adosed cell−Abackground)/(Acontrol cell−Abackground)×100%. The average value of 3 parallel wells was taken for each detection point, and the inhibition curve was drawn to calculate the IC50 value.
The African green monkey kidney cells (Vero cells) used in the experiment were from the Cell Resource Center of the Institute of Basic Medicine, Chinese Academy of Medical Sciences.

Row | MIC P. aeruginosa ATCC 27853 [1] [µg/mL] | MIC A. baumannii ATCC 19606 [2] [µg/mL] | MIC E. coli ATCC 25922 [3] [µg/mL] | MIC S. epidermidis ATCC 12228 [4] [µg/mL] | MIC K. pneumoniae ATCC BAA-2146 (NDM-1) [5] [µg/mL] | SMILES | IC50 at 72 h [6] [µg/mL]
1 | 2 (≈ 1.75 µM) | 0.06 (≈ 0.0524 µM) | 0.12 (≈ 0.105 µM) | >128 | 0.5 (≈ 0.437 µM) | CC[C@H](C)CCCCC(=O)N[C@@H](CCN)C(=O)N[C@H](C(=O)N[C@H](CO)C(=O)N[C@H]1CCNC(=O)[C@H]([C@@H](C)O)NC(=O)[C@H](CCN)NC(=O)[C@H](CCN)NC(=O)[C@H]([C@@H](C)O)NC(=O)[C@@H](CC(C)C)NC(=O)[C@H](CCN)NC1=O)[C@@H](C)O [Compound 58, (S)-6-methyloctanoyl-Dab-Thr-D-Ser-ring(4-10)[Dab-Dab-D-Leu-Thr-Dab-Dab-Thr]] (X2-[Dab]T[dS][Dab][Dab][dL]T[Dab][Dab]T; lactam 4-C) | 189 ± 11.3 (≈ 165 µM)
2 | 2 (≈ 1.77 µM) | 0.12 (≈ 0.106 µM) | 0.25 (≈ 0.221 µM) | >128 | 0.5 (≈ 0.442 µM) | CC(C)CCCCC(=O)N[C@@H](CCN)C(=O)N[C@H](C(=O)N[C@H](CO)C(=O)N[C@H]1CCNC(=O)[C@H]([C@@H](C)O)NC(=O)[C@H](CCN)NC(=O)[C@H](CCN)NC(=O)[C@H]([C@@H](C)O)NC(=O)[C@@H](CC(C)C)NC(=O)[C@H](CCN)NC1=O)[C@@H](C)O [Compound 59, 6-methylheptanoyl-Dab-Thr-D-Ser-ring(4-10)[Dab-Dab-D-Leu-Thr-Dab-Dab-Thr]] ({Heptanoyl(6-Me)}-[Dab]T[dS][Dab][Dab][dL]T[Dab][Dab]T; lactam 4-C) | 318 ± 25.6 (≈ 281 µM)
3 | 2 (≈ 1.73 µM) | 1 (≈ 0.865 µM) | 1 (≈ 0.865 µM) | 128 (≈ 111 µM) | 1 (≈ 0.865 µM) | CC[C@H](C)[C@@H]1NC(=O)[C@@H](CC(C)C)NC(=O)[C@H](CCN)NC(=O)[C@@H](NC(=O)[C@H](CCN)NC(=O)[C@@H](NC(=O)[C@H](CCN)NC(=O)CCCCC(C)C)[C@@H](C)O)CCNC(=O)[C@H]([C@@H](C)O)NC(=O)[C@H](CCN)NC(=O)[C@H](CCN)NC1=O [Compound 75, 6-methylheptanoyl-Dab-Thr-Dab-ring(4-10)[Dab-Dab-D-Leu-Ile-Dab-Dab-Thr]] ({Heptanoyl(6-Me)}-[Dab]T[Dab][Dab][Dab][dL]I[Dab][Dab]T; lactam 4-C) | 199 ± 13.1 (≈ 172 µM)
4 | 2 (≈ 1.71 µM) | 1 (≈ 0.855 µM) | 1 (≈ 0.855 µM) | 64 (≈ 54.7 µM) | 1 (≈ 0.855 µM) | CC(C)CCCCCC(=O)N[C@@H](CCN)C(=O)N[C@H](C(=O)N[C@@H](CCN)C(=O)N[C@H]1CCNC(=O)[C@H]([C@@H](C)O)NC(=O)[C@H](CCN)NC(=O)[C@H](CCN)NC(=O)[C@H](CC(C)C)NC(=O)[C@@H](CC(C)C)NC(=O)[C@H](CCN)NC1=O)[C@@H](C)O [Compound 86, 7-methyloctanoyl-Dab-Thr-Dab-ring(4-10)[Dab-Dab-D-Leu-Leu-Dab-Dab-Thr]] ({Octanoyl(7-Me)}-[Dab]T[Dab][Dab][Dab][dL]L[Dab][Dab]T; lactam 4-C) | 87 ± 6.98 (≈ 74.4 µM)

The next lines start with the compound.

Row | SMILES | MIC P. aeruginosa ATCC 27853 [1] [µg/mL] | MIC A. baumannii ATCC 19606 [2] [µg/mL] | MIC E. coli ATCC 25922 [3] [µg/mL] | MIC S. epidermidis ATCC 12228 [4] [µg/mL] | MIC K. pneumoniae ATCC BAA-2146 (NDM-1) [5] [µg/mL] | IC50 at 72 h [6] [µg/mL]
5 | CC[C@H](C)CCCCC(=O)N[C@@H](CCN)C(=O)N[C@H](C(=O)N[C@@H](CCN)C(=O)N[C@H]1CCNC(=O)[C@H]([C@@H](C)O)NC(=O)[C@H](CCN)NC(=O)[C@H](CCN)NC(=O)[C@H]([C@@H](C)CC)NC(=O)[C@@H](Cc2ccccc2)NC(=O)[C@H](CCN)NC1=O)[C@@H](C)O [Compound 47, (S)-6-methyloctanoyl-Dab-Thr-Dab-ring(4-10)[Dab-Dab-D-Phe-Ile-Dab-Dab-Thr]] (X2-[Dab]T[Dab][Dab][Dab][dF]I[Dab][Dab]T; lactam 4-C) | 2 (≈ 1.66 µM) | 1 (≈ 0.831 µM) | 1 (≈ 0.831 µM) | 128 (≈ 106 µM) | 1 (≈ 0.831 µM) | 74.7 ± 6.13 (≈ 62.1 µM)
6 | CC[C@H](C)CCCCC(=O)N[C@@H](CCN)C(=O)N[C@H](C(=O)N[C@@H](CCN)C(=O)N[C@H]1CCNC(=O)[C@H]([C@@H](C)O)NC(=O)[C@H](CCN)NC(=O)[C@H](CCN)NC(=O)[C@H]([C@@H](C)CC)NC(=O)[C@@H](CC(C)C)NC(=O)[C@H](CCN)NC1=O)[C@@H](C)O [Compound 71, (S)-6-methyloctanoyl-Dab-Thr-Dab-ring(4-10)[Dab-Dab-D-Leu-Ile-Dab-Dab-Thr]] (X2-[Dab]T[Dab][Dab][Dab][dL]I[Dab][Dab]T; lactam 4-C) | 2 (≈ 1.71 µM) | 1 (≈ 0.855 µM) | 1 (≈ 0.855 µM) | 128 (≈ 109 µM) | 1 (≈ 0.855 µM) | 176 ± 14.7 (≈ 151 µM)
7 | CC[C@H](C)CCCCC(=O)N[C@@H](CCN)C(=O)N[C@H](C(=O)N[C@@H](CCN)C(=O)N[C@H]1CCNC(=O)[C@H]([C@@H](C)O)NC(=O)[C@H](CCN)NC(=O)[C@H](CCN)NC(=O)[C@H](C(C)C)NC(=O)[C@@H](CC(C)C)NC(=O)[C@H](CCN)NC1=O)[C@@H](C)O [Compound 72, (S)-6-methyloctanoyl-Dab-Thr-Dab-ring(4-10)[Dab-Dab-D-Leu-Val-Dab-Dab-Thr]] (X2-[Dab]T[Dab][Dab][Dab][dL]V[Dab][Dab]T; lactam 4-C) | 2 (≈ 1.73 µM) | 0.5 (≈ 0.433 µM) | 0.5 (≈ 0.433 µM) | 128 (≈ 111 µM) | 0.5 (≈ 0.433 µM) | 131 ± 8.69 (≈ 113 µM)
8 | CCC[C@@H]1NC(=O)[C@@H](CC(C)C)NC(=O)[C@H](CCN)NC(=O)[C@@H](NC(=O)[C@H](CCN)NC(=O)[C@@H](NC(=O)[C@H](CCN)NC(=O)CCCC[C@@H](C)CC)[C@@H](C)O)CCNC(=O)[C@H]([C@@H](C)O)NC(=O)[C@H](CCN)NC(=O)[C@H](CCN)NC1=O [Compound 73, (S)-6-methyloctanoyl-Dab-Thr-Dab-ring(4-10)[Dab-Dab-D-Leu-Nva-Dab-Dab-Thr]] (X2-[Dab]T[Dab][Dab][Dab][dL][Nva][Dab][Dab]T; lactam 4-C) | 1 (≈ 0.865 µM) | 1 (≈ 0.865 µM) | 1 (≈ 0.865 µM) | 128 (≈ 111 µM) | 1 (≈ 0.865 µM) | 108 ± 9.16 (≈ 93.9 µM)
9 | CC(C)CCCCC(=O)N[C@@H](CCN)C(=O)N[C@H](C(=O)N[C@@H](CCN)C(=O)N[C@H]1CCNC(=O)[C@H]([C@@H](C)O)NC(=O)[C@H](CCN)NC(=O)[C@H](CCN)NC(=O)[C@H](C(C)C)NC(=O)[C@@H](CC(C)C)NC(=O)[C@H](CCN)NC1=O)[C@@H](C)O [Compound 76, 6-methylheptanoyl-Dab-Thr-Dab-ring(4-10)[Dab-Dab-D-Leu-Val-Dab-Dab-Thr]] ({Heptanoyl(6-Me)}-[Dab]T[Dab][Dab][Dab][dL]V[Dab][Dab]T; lactam 4-C) | 2 (≈ 1.75 µM) | 1 (≈ 0.876 µM) | 0.5 (≈ 0.438 µM) | >128 | 0.5 (≈ 0.438 µM) | 225 ± 17 (≈ 197 µM)
10 | CCC[C@@H]1NC(=O)[C@@H](CC(C)C)NC(=O)[C@H](CCN)NC(=O)[C@@H](NC(=O)[C@H](CCN)NC(=O)[C@@H](NC(=O)[C@H](CCN)NC(=O)CCCCC(C)C)[C@@H](C)O)CCNC(=O)[C@H]([C@@H](C)O)NC(=O)[C@H](CCN)NC(=O)[C@H](CCN)NC1=O [Compound 77, 6-methylheptanoyl-Dab-Thr-Dab-ring(4-10)[Dab-Dab-D-Leu-Nva-Dab-Dab-Thr]] ({Heptanoyl(6-Me)}-[Dab]T[Dab][Dab][Dab][dL][Nva][Dab][Dab]T; lactam 4-C) | 1 (≈ 0.876 µM) | 0.5 (≈ 0.438 µM) | 0.5 (≈ 0.438 µM) | >128 | 0.5 (≈ 0.438 µM) | 168 ± 12.5 (≈ 148 µM)
11 | CCCCCCC(=O)N[C@@H](CCN)C(=O)N[C@H](C(=O)N[C@@H](CCN)C(=O)N[C@H]1CCNC(=O)[C@H]([C@@H](C)O)NC(=O)[C@H](CCN)NC(=O)[C@H](CCN)NC(=O)[C@H](CC(C)C)NC(=O)[C@@H](CC(C)C)NC(=O)[C@H](CCN)NC1=O)[C@@H](C)O [Compound 82, heptanoyl-Dab-Thr-Dab-ring(4-10)[Dab-Dab-D-Leu-Leu-Dab-Dab-Thr]] (Heptanoyl-[Dab]T[Dab][Dab][Dab][dL]L[Dab][Dab]T; lactam 4-C) | 1 (≈ 0.876 µM) | 2 (≈ 1.75 µM) | 1 (≈ 0.876 µM) | >128 | 0.5 (≈ 0.438 µM) | 216 ± 16.1 (≈ 189 µM)
